One data set concerns HIV-1 K103N, Y181C (A17). The data set is described as follows: HIV-1 K103N, Y181C (A17) replication in PBMCs. It is filed as cell-based. From the text: In another embodiment of the present disclosure compounds are provided which inhibit the replication of HIV strains resistant to NNRTIs. Compounds in this disclosure inhibit, A17, an HIV-1 virus with mutations in the RT non-nucleoside binding pocket, K103N and Y181C, in a dose-dependent susceptibility testing manner.
The asparagine variation at residue 103 and the cysteine variation at residue 181 are known to inhibit the activity of the NNRTI's.
Evaluation Dihydropyrimidines vs. HIV-1Ba-L and HIV-1 K103N, Y181C in PBMCs

Data set [1] has as its system HIV-1Ba-L. The data set is described as follows: Inhibition of virus replication in MAGI-CCR5 cells (β-galactosidase reporter). It is filed as cell-based. In short, it runs like this: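 HeLa-derived MAGI-CCR5 cells (high CD4/CCR5, HIV-1 LTR-driven β-galactosidase) plated at 1.0×10^4 cells/well the day before infection with HIV-1Ba-L. Compounds tested at six concentrations in triplicate, with parallel uninfected plates for cytotoxicity.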

The subject of data set [2] is HIV-1Ba-L. In words: HIV-1Ba-L replication in PBMCs (supernatant RT end-point). A digest of the protocol:
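Pooled PHA-stimulated human PBMCs (5×10^4 cells/well) were infected with HIV-1Ba-L at MOI 0.1 with nine ½-log compound dilutions and cultured seven days at 37° C. Supernatant RT activity was measured by ^3H-TTP incorporation on poly rA:oligo dT (60 minutes, 37° C) and counted by scintillation.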

Data set [3] in a line: Cytotoxicity by MTS staining in uninfected MAGI-CCR5 cells. To be noted: human, read-out: TC50. It is filed as cell-based. In short, it runs like this:
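Uninfected MAGI-CCR5 cells (HeLa-CD4-LTR-β-gal derived, expressing CD4/CCR5) plated at 1.0×10^4 cells/well the day before, then exposed to compounds at six concentrations in triplicate alongside parallel infected assays. Viability read by MTS staining.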

Data set [4] is described as follows: Cytotoxicity by MTS staining in PBMCs. It is filed as cell-based. To be noted: human, peripheral blood mononuclear cells (PBMC), read-out: TC50. As for the experimental part:
Cytotoxicity was assessed by MTS staining. At assay end-point, PBMC were stained with the addition of […] of the soluble tetrazolium-based dye MTS to determine cell viability and quantify compound toxicity. The plates were incubated 4 to 6 hrs at 37° C. Following incubation, the activity was assessed by reading absorbance values at 490/650 nm.

Where [5] appears, read: Human immunodeficiency virus 1, HIV-1Ba-L in MAGI-CCR5 cells, 48 hours, β-galactosidase reporter expression, read-out: IC50.
Setting [6] is: Human immunodeficiency virus 1, PBMC, 168 h.

Each structure is given as a SMILES string. Read-outs that look alike come from different tables or passages of the source.

The IC50 is the concentration that gives 50% inhibition. Turning to `CC1=C(c2nc(-c3ccc(C#N)cc3C)cs2)C(c2cc3ccccc3n2C)NC(=O)N1` (stereo not drawn) [Example 87], the IC50 with HIV-1 K103N, Y181C (A17) (Human immunodeficiency virus 1, PBMC) was 5 to 100 µM; in the data set on HIV-1Ba-L [1] (setting [5]) it was less than 1 µM; with HIV-1Ba-L [2] (Human immunodeficiency virus 1, BAL, PBMC), less than 1 µM; in the data set on HIV-1Ba-L [2] (setting [6]) it was less than 1 µM. For the same compound, the “TI (TC50/IC50)” value with HIV-1 K103N, Y181C (A17) (Virus A17 (K103N, Y181C) in PBMCs) is “C (C < 50.0-10.0)”; with HIV-1Ba-L [1] (HIV-1Ba-L in MAGI-CCR5 cells), “A (A = TI (TC50/IC50) ≧ 100.0)”; with HIV-1Ba-L [2] (HIV-1Ba-L in PBMCs), “A (A = TI (TC50/IC50) ≧100.0)”; in the data set on HIV-1Ba-L [2] (Virus Ba-L in PBMCs (Ba-L vs A17 comparison)), “A (A = TI (TC50/IC50) ≧ 100.0)”. Further, in data set [3], the CC50 at 48 h was not below 100 µM. The CC50 at 7 days in data set [4] (A17 line of the table), in data set [4] (Ba-L line of the table) and in data set [4] (MTS staining) was not below 100 µM each time.

In the case of `COc1ccc(-c2csc(C3=C(C)NC(=O)NC3c3ccc(-c4ccccc4)cc3)n2)cc1` (stereo not drawn) [Example 43], the “TI (TC50/IC50)” value in the data set with HIV-1Ba-L [1] (HIV-1Ba-L in MAGI-CCR5 cells) and with HIV-1Ba-L [2] (HIV-1Ba-L in PBMCs) was “D (D < 10.0)” throughout. The IC50 with HIV-1Ba-L [1] (setting [5]) was more than 100 µM; in the data set with HIV-1Ba-L [2] (setting [6]) it was 5 to 100 µM. In addition, the CC50 at 48 h in data set [3] was not below 100 µM. For the same compound, in data set [4] (MTS staining), the CC50 at 7 days was not below 100 µM.

For `CC1=C(c2nc(-c3ccc(C#N)cc3)cs2)C(c2cccc(C(F)(F)F)c2)NC(=O)N1` (stereo not drawn) [Example 71], the “TI (TC50/IC50)” value with HIV-1Ba-L [1] (HIV-1Ba-L in MAGI-CCR5 cells) is listed as “B (B < 100.0-50.0)”; in the data set on HIV-1Ba-L [2] (HIV-1Ba-L in PBMCs), “C (C < 50.0-10.0)”. Further, the IC50 in the data set with HIV-1Ba-L [1] (setting [5]) lay within 1 to 5 µM; with HIV-1Ba-L [2] (setting [6]), 5 to 100 µM. Besides, in data set [3], the CC50 at 48 h was not below 100 µM. Moreover, in data set [4] (MTS staining), the CC50 at 7 days was not below 100 µM.

For `CC1=C(c2nc(-c3ccc(C#N)cc3)cs2)C(c2ccc(Oc3ccccc3)cc2)NC(=O)N1` (stereo not drawn) [Example 59], the “TI (TC50/IC50)” value is reported as “A (A = TI (TC50/IC50) ≧ 100.0)” in the data set on HIV-1Ba-L [1] (HIV-1Ba-L in MAGI-CCR5 cells) and “A (A = TI (TC50/IC50) ≧100.0)” in the data set on HIV-1Ba-L [2] (HIV-1Ba-L in PBMCs). The IC50 in the data set with HIV-1Ba-L [1] (setting [5]) and with HIV-1Ba-L [2] (setting [6]) was less than 1 µM throughout. Also, the CC50 at 48 h in data set [3] was not below 100 µM. The CC50 at 7 days in data set [4] (MTS staining) was not below 100 µM.

Take `CC1=C(c2nc(-c3cccc(O)c3)cs2)C(c2cccc(O)c2)NC(=O)N1` (stereo not drawn) [Example 38]: the “TI (TC50/IC50)” value with HIV-1Ba-L [1] (HIV-1Ba-L in MAGI-CCR5 cells) and in the data set with HIV-1Ba-L [2] (HIV-1Ba-L in PBMCs) was “D (D < 10.0)” in each case. The IC50 in the data set on HIV-1Ba-L [1] (setting [5]) and with HIV-1Ba-L [2] (setting [6]) was 5 to 100 µM each time. Moreover, the CC50 at 48 h in data set [3] was in the range of 50 to 100 µM. The CC50 at 7 days in data set [4] (MTS staining) was 50 to 100 µM.

For the compound `CC1=C(c2nc(-c3ccc(Br)cc3)cs2)C(c2cccc(O)c2)NC(=O)N1` (stereo not drawn) [Example 35], the results for the “TI (TC50/IC50)” value in the data set on HIV-1Ba-L [1] (HIV-1Ba-L in MAGI-CCR5 cells) and in the data set with HIV-1Ba-L [2] (HIV-1Ba-L in PBMCs) were “C (C < 50.0 to 10.0)” and “C (C < 50.0-10.0)”, respectively. Further, the IC50 in the data set with HIV-1Ba-L [1] (setting [5]) and with HIV-1Ba-L [2] (setting [6]) was 1 to 5 µM each time. The CC50 at 48 h in data set [3] lay in the range of 50 to 100 µM. In addition, the CC50 at 7 days in data set [4] (MTS staining) was in the range of 50 to 100 µM.

Take `Cc1nnc(C(=O)NC(C)(C)c2nc(C(=O)NCc3ccc(F)cc3)c(O)c(=O)n2C)o1` [Raltegravir, reference compound]: the “TI (TC50/IC50)” value is more than 3.85 in the data set with HIV-1Ba-L [1] (HIV-1Ba-L in MAGI-CCR5 cells) and more than 371.0 in the data set with HIV-1Ba-L [2] (HIV-1Ba-L in PBMCs). In addition, the IC50 came out at 0.026 µM with HIV-1Ba-L [1] (Human immunodeficiency virus 1, MAGI-CCR5, 48 h) and 0.003 µM in the data set with HIV-1Ba-L [2] (setting [6]). For the same compound, the CC50 at 48 h in data set [3] was more than 100 µM. For the same compound, in data set [4] (MTS staining), the CC50 at 7 days was more than 1 µM.

For `CC1=C(c2nc(-c3ccc(C#N)cc3)cs2)C(c2ccnc3ccccc23)NC(=O)N1` (stereo not drawn) [Example 15], the “TI (TC50/IC50)” value with HIV-1Ba-L [1] (HIV-1Ba-L in MAGI-CCR5 cells) and in the data set with HIV-1Ba-L [2] (HIV-1Ba-L in PBMCs) was “B (B < 100.0-50.0)” in each case. Moreover, the half-maximal inhibitory concentration (IC50) with HIV-1Ba-L [1] (setting [5]) and in the data set on HIV-1Ba-L [2] (setting [6]) was 1 to 5 µM each time. The CC50 at 48 h in data set [3] was not below 100 µM. Also, in data set [4] (MTS staining), the CC50 at 7 days is not below 100 µM.
